Here are results for twelve compounds from PubChem BioAssay AID2060483 (Molecular Pharmacology Branch, DTP, NCI, 2025).

Several values for one entry are separate records, joined by “and”; a condition that tells them apart may be missing. Identical values can stand only once.

This assay relates to K24384-001-R-PDC complex spheroids, viability. In words: Anticancer human tumor K24384-001-R-PDC patient-derived pancreatic adenocarcinoma cell line growth inhibition [GQUAD]. The conditions noted are these: for viability, T/C: stronger effect = lower value. An excerpt:
DNA G-quadruplex Stabilizer Agents in Combinations in Complex Spheroids
A high-throughput screen of multi-cell type tumor spheroids was designed to identify active combinations of DNA G-quadruplex stabilizer agents and targeted small molecules. Complex spheroids include a stromal component modeled by human endothelial cells (HUVEC) and fibroblasts modeled by human mesenchymal stem cells (MSCs). The concentration ranges selected for each drug and investigational agent were based upon clinically achievable concentrations if the clinical Cmax of the agent was known.
Compounds. The drugs and investigational agents: pidnarulex (CX-5461; NSC782164), APTO-253 (NSC789042), BRACO-19 (NSC847499), peposertib (NSC802822), ceralasertib (NSC780249), elimusertib (NSC800525), camonsertib (NSC841442), AZD-1390 (NSC803789), olaparib (NSC753686), talazoparib (NSC767125), ART-558 (NSC835418), sotorasib (NSC818433), MRTX-1133 (NSC836407), SN-38 (NSC673596), topotecan (NSC609699), etoposide (NSC141540), doxorubicin (NSC123127), gemcitabine (NSC613327), 5-fluorouracil (NSC19893), paclitaxel (NSC125973), vemurafenib (NSC761431), panobinostat (NSC761190), R-306465 (JNJ-16241199; NSC773264), adavosertib (NSC754352), TP-3654 (NSC805149), carboplatin (NSC241240), KSQ-4279 (NSC840948), and staurosporine (NSC755774) were obtained from the National Cancer Institute (NCI) Developmental Therapeutics Program Chemical Repository (34). The FDA-approved anticancer drug set is available from the NCI Developmental Therapeutics Program. […] The stock solutions were prepared in dimethyl sulfoxide (DMSO, Sigma-Aldrich, St. Louis, MO, cat. D2650) at 800-fold the tested concentration and stored at -70 degrees C prior to their use. All drugs and investigational agents were tested over a range starting from a high concentration at or near the clinical Cmax and decreasing in half-log increments. If the clinical Cmax for an agent had not been determined, the highest concentration tested was 10 microM.
2.3 Cell Culture. All cells were maintained in an incubator at 37 degrees C and 5% CO2 with 95% humidity. The PDC lines were cultured according to standard operating procedures established by the NCI PDMR. All PDCs were thawed and cultured in Matrigel-coated flasks prepared with a working solution of 1X Ham's F-12 nutrient mix, without supplementation (Invitrogen, cat. 11765054), 100 U/mL penicillin-streptomycin (Invitrogen, cat. 15140122), and 2.5% Matrigel (Corning Inc., cat. 354248) for the first three passages. The 857933-349-R-J2-PDC line was cultured in 6C/Colon 1B media, which includes advanced DMEM/F-12 (Thermo Fisher Scientific, cat. 12634028), 10 mM HEPES (Thermo Fisher Scientific, cat. 15630080), 1X GlutaMAX supplement (Thermo Fisher Scientific, cat. 35050061), 0.1 mg/mL primocin (InvivoGen, cat. ant-pm-2), 10% defined fetal bovine serum, heat inactivated (HyClone Laboratories Inc., cat. SH30070.03HI), 50% L-WRN conditioned media (ATCC, cat. CRL-3276), 1.25 mM N-Acetyl-L-cysteine (Sigma-Aldrich, cat. A9165), 10 mM nicotinamide (Sigma-Aldrich, cat. N0636), 1X B-27 supplement (Thermo Fisher Scientific, cat. 17504044), 1X N-2 supplement (Thermo Fisher Scientific, cat. 17502048), 10 microM Y-27632 dihydrochloride (Tocris Bioscience, cat. 1254), and 50 ng/mL human EGF recombinant protein (Thermo Fisher Scientific, cat. PHG0311). The 485176-168-R4-J1-PDC line was cultured in Panc media, which includes all 6C/Colon 1B media components plus 100 ng/mL human FGF-10 (Thermo Fisher Scientific, cat. 100-26), 500 nM SB-431542 (Selleckchem, cat. S1067), and gastrin (Tocris, cat. 3006).
[…]

The mark [1] stands for this setting: compound alone, run of 02/26/2024.
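Also: spheroids exposed to compounds for seven days.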

A word on the viability, T/C: it is the ratio of treated to control. As usually defined, the IC50 is the midpoint of a concentration-inhibition curve. With `CC(C)n1c(=O)n(C)c2cnc3cc(F)c(-c4ccc(OCCCN5CCCCC5)nc4)cc3c21`, the viability, T/C was 108% and 84.2% and 93.7% (compound 0.0316 µM); 89% and 95.3% and 95.1% (compound 0.1 µM); 116% and 97.8% and 99.7% (compound 0.316 µM); 120% and 88% and 123% (compound 1 µM); 123% and 107% and 119% (compound 3.16 µM); 92.1% and 80.3% and 90.2% (compound 10 µM). For the same compound, under “curve of compound”, the IC50 is greater than 10000 nM.

On to `CC1COCCN1c1cc(-c2ccnn2C)c2ccnc(-c3ccn[nH]3)c2n1` (stereo not drawn), for which the viability, T/C reads like this: (compound 0.0316 µM) 85.2% and 75.3% and 76.9%; (compound 0.1 µM) 49.8% and 45% and 54.3%; (compound 0.316 µM) 41.3% and 28.3% and 40.7%; (compound 1 µM) 37.1% and 26.5% and 29.7%; (compound 3.16 µM) 38.4% and 30.4% and 33.3%; (compound 10 µM) 31.8% and 32.7% and 33.8%. Also, the concentration for half-maximal inhibition (IC50) (curve of compound) was 109 nM and 82.7 nM and 141 nM.

Turning to `CC1COCCN1c1cc(C2(O)CC3CCC(C2)O3)c2cnn(-c3ccn[nH]3)c2n1` (stereo not drawn), the viability, T/C by setting is: (compound 0.0316 µM) 80.5% and 78% and 64.4%; (compound 0.1 µM) 43.7% and 56.4% and 38.6%; (compound 0.316 µM) 40% and 45.8% and 33.4%; (compound 1 µM) 29.1% and 26.3% and 24.6%; (compound 3.16 µM) 24.8% and 25.7% and 32.5%; (compound 10 µM) 13.2% and 19% and 15%. Further, the IC50 (curve of compound) is 108 nM and 178 nM and 64.2 nM.

Consider `CC1COCCN1c1cc(C2(S(C)(=N)=O)CC2)nc(-c2ccnc3[nH]ccc23)n1` (stereo not drawn), for which the viability, T/C (compound 0.0316 µM) was 92.8% and 89.6% and 108%; the viability, T/C (compound 0.1 µM) was 96% and 93.6% and 99.5%; the viability, T/C (compound 0.316 µM) was 107% and 102% and 114%; the viability, T/C (compound 1 µM) was 65.9% and 56.5% and 74.8%; the viability, T/C (compound 3.16 µM) was 34.9% and 32.8% and 40%; the viability, T/C (compound 10 µM) was 33% (2×) and 26.7%. Further, the IC50 (curve of compound) was 1770 nM and 1320 nM and 2110 nM.

For `CC[C@@]1(O)C(=O)OCc2c1cc1n(c2=O)Cc2cc3c(CN(C)C)c(O)ccc3nc2-1`, the viability, T/C by setting is: (compound 0.000999 µM) 103% and 111% and 108%; (compound 0.00316 µM) 83.2% and 92.2% and 77.5%; (compound 0.00999 µM) 97.7% and 100% and 114%; (compound 0.0316 µM) 82.8% and 82.3% and 80.1%; (compound 0.0999 µM) 66.6% and 50.2% and 63.6%; (compound 0.316 µM) 53% and 58.5% and 51.3%. The IC50 (curve of compound) is greater than 316 nM.

`CCc1c2c(nc3ccc(O)cc13)-c1cc3c(c(=O)n1C2)COC(=O)[C@]3(O)CC`: the viability, T/C (compound 0.000999 µM) is 99.6% and 68.6% and 79.3%; the viability, T/C (compound 0.00316 µM) is 52.9% and 58% and 61.9%; the viability, T/C (compound 0.00999 µM) was 65.9% and 39.2% and 63.5%; the viability, T/C (compound 0.0316 µM) is 43.4% and 33% and 29.1%; the viability, T/C (compound 0.0999 µM) was 27.3% and 38% and 31.1%; the viability, T/C (compound 0.316 µM) was 24.3% (2×) and 23.9%. The IC50 (curve of compound) was 12.8 nM and 4.92 nM and 15.7 nM.

In the case of `CN(C)c1ccc(Nc2c3ccc(NC(=O)CCN4CCCC4)cc3nc3cc(NC(=O)CCN4CCCC4)ccc23)cc1`, the viability, T/C was 101% [middle of 12 runs] (compound 0.0316 µM), 100% [middle of 12 runs] (compound 0.1 µM) and 101% [middle of 12 runs] (compound 0.316 µM). The IC50 under setting [1] is greater than 10000 nM.

For the compound `COc1ccc([C@@H](O)c2cc(-c3ncnc4cc(N5CCOCC5)ccc34)c(F)cc2Cl)nn1`, the viability, T/C (compound 0.0316 µM) is 92.4% and 98.4% and 120%; the viability, T/C (compound 0.1 µM) was 99.1% and 95.7% and 103%; the viability, T/C (compound 0.316 µM) was 103% and 83.4% and 83.3%; the viability, T/C (compound 1 µM) was 72.3% and 65% and 84.7%; the viability, T/C (compound 3.16 µM) is 48.4% and 44.9% and 56%; the viability, T/C (compound 10 µM) was 29.8% and 22.7% and 35.5%. Further, for the setting “curve of compound”, the IC50 was 2660 nM and 2310 nM and 4740 nM.

With `Cc1[nH]c2ccc(F)cc2c1-c1nc2c3cccnc3c3ncccc3c2[nH]1`, the viability, T/C is 109% [middle of 12 runs] (compound 0.0316 µM), 102% [middle of 12 runs] (compound 0.1 µM), 99% [middle of 12 runs] (compound 0.316 µM) and 65.3% [middle of 12 runs] (compound 3.16 µM). In addition, the IC50 is > 10000 nM and 9080 nM (compound alone, run of 02/20/2024); greater than 10000 nM under setting [1].

As for `Cc1[nH]c2ccccc2c1CCNCc1ccc(/C=C/C(=O)NO)cc1`, the viability, T/C was 103% and 120% and 118% (compound 0.000999 µM); 96.8% and 103% and 92.5% (compound 0.00316 µM); 92.9% and 110% and 98.1% (compound 0.00999 µM); 90% and 89.4% and 90.5% (compound 0.0316 µM); 56.2% and 61% and 48.7% (compound 0.0999 µM); 6.17% and 6.7% and 5.53% (compound 0.316 µM). Moreover, for the setting “curve of compound”, the IC50 was 116 nM and 126 nM and 101 nM.

Turning to `Cc1cnc(CNC(=O)c2c(=O)c3ccc(N4CCCN(C)CC4)nc3n3c2sc2ccccc23)cn1`, the viability, T/C is 82.8% [middle of 12 runs] (compound 0.0316 µM); 66.4% [middle of 12 runs] (compound 0.1 µM); 50.4% [middle of 12 runs] (compound 0.316 µM); 44.4% [middle of 12 runs] (compound 1 µM); 34.6% [middle of 12 runs] (compound 3.16 µM).

Regarding `Cn1ncnc1[C@H]1c2n[nH]c(=O)c3cc(F)cc(c23)N[C@@H]1c1ccc(F)cc1`, the viability, T/C runs as follows: (compound 0.000999 µM) 112% and 100% and 116%; (compound 0.00316 µM) 106% and 95% and 96.9%; (compound 0.00999 µM) 109% and 76.1% and 136%; (compound 0.0316 µM) 79.5% and 80.1% and 87.8%; (compound 0.0999 µM) 88.6% and 88.1% and 99.9%; (compound 0.316 µM) 85.2% and 80.7% and 93.3%. For the same compound, where the note is “curve of compound”, the IC50 was greater than 316 nM.
